Test results: patent US20100256357A1, “HETEROCYCLES USEFUL AS INHIBITORS OF CARBONIC ANHYDRASE” (Agouron Pharmaceuticals, Inc., priority 2006, published 2010)
pIC50: −log10 of the molar value. Read-outs that look alike come from different tables or passages of the source.

Experiments:
human CA-IV = target: T1, human CA-IV (Homo sapiens, UniProt P22748); assay: Carbonic Anhydrase-IV (CA-IV) Fluorescence Polarization Assay-IC50 Determination; type: binding; settings: for inhibition at 0.2 µM: CA-IV Min dose 200 nM, read-out: CA-IV: % Inh @ Min dose; for pIC50: read-out: CA-IV IC50
T1 construct: made in house; host or cells: Escherichia coli BL21(DE3)
Description: Carbonic Anhydrase-IV (CA-IV) Fluorescence Polarization Assay-IC50 Determination
These cells were grown in Luria broth (LB) media (Biomyx) supplemented with 800 uM ZnCl2 at 37° C. until an O.D.600 of 0.7, at which point the cells were induced with 100 uM isopropyl-beta-D-thiogalactopyranoside (IPTG) for 20 hours at 20° C. The frozen pellet was resuspended in 50mM 2-morpholinoethanesulfonic acid (MES) at pH 6.0, 100 mM NaCl, 800 uM ZnCl2 and EDTA-Free protease inhibitors (Roche). The cells were lysed with a microfluidizer, the lysate was spun at 40,000 rpm for 45 minutes at 4° C., and the soluble fraction was dialyzed overnight at 4° C. in 50 mM MES pH 6.0, and 100 mM NaCl. The soluble fraction was then put over a 100 ml SP-Sepharose High Performance (GE Healthcare) column and eluted with a 50 mM MES pH 6.0, 750 mM NaCl gradient. The peak fractions were then concentrated, via an Amicon Ultra-4 10,000 MWCO (Millipore) spin column to 2.0 mL and loaded onto a Sephacryl S-100 High Resolution (GE Healthcare) column in 25 mM tris(hydroxymethyl)aminomethane hydrochloride (Tris-HCl) pH 7.0, and 100 mM NaCl. The peak fractions were then concentrated, via an Amicon Ultra-4 10,000 MWCO (Millipore) spin column, to 7.0 mg/mL and left exposed at room temperature overnight. […] T.; et al. Carbonic Anhydrase Inhibitors. Med. Res. Rev. […]
Assays were conducted in a final volume of 100 μL in 50 mM Tris/HCl (pH 7.6), 100 mM Na2SO4 and 0.005% Tween-20 in a 96-well black assay plate.

human CA-II [1] = target: T2, human CA-II (Homo sapiens, UniProt P00918); assay: Carbonic Anhydrase-II (CA-II) Fluorimetric Assay-IC50 Determination; type: biochemical; settings: for pIC50: Kd ND, read-out: CA-II IC50
T2 construct: purchased Sigma-Aldrich C6165
In short: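 Compounds were tested as an 11-point, 1:3 dilution series in duplicate, with a top final concentration of 1 μM, in 50 mM Tris/HCl pH 7.6, 100 mM Na2SO4 and 0.005% Tween-20. Human CA-II activity was followed as the rate of fluorescein diacetate hydrolysis at 25° C, with excitation at 488 nm and emission at 538 nm.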

human CA-II [2] = target: T2, human CA-II; assay: Carbonic Anhydrase-II (CA-II) Fluorescence Polarization Tight Binding Assay-Kd Determination; settings: inhibitor concentration 2.5 nM
Description: Assays were conducted in a final volume of 100 μL in 50 mM Tris/HCl (pH 7.6), 100 mM Na2SO4 and 0.005% Tween-20 in a 96-well black assay plate. […] The assay plate was
The Kd binding was calculated using GraphPad Prism and Morrison tight binding ligand equation.

[3] = CA II Min dose 100 nM, read-out: CAII % Inh @ Min dose

T1 sequence (P22748 19-284 limits assumed): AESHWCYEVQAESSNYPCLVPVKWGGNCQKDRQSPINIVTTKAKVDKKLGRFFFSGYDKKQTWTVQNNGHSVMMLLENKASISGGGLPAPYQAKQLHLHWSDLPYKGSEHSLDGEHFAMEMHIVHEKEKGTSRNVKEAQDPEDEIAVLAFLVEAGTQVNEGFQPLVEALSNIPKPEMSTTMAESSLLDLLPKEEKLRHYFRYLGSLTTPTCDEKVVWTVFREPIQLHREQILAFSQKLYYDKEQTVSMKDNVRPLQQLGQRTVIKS

NS(=O)(=O)c1ccc(-n2nc(C(=O)N3CC(Oc4ccccc4)C3)nc2Cc2ccccc2)cc1 [Example R-15, 4-(5-benzyl-3-[(3-phenoxyazetidin-1-yl)carbonyl]-1H-124-triazol-1-yl)benzenesulfonamide]
inhibition at 0.2 µM (human CA-IV): 60.9% | pIC50 (human CA-IV): 6.66 | inhibition at 0.1 µM (human CA-II [1]; [3]): 96% | inhibition at 0.1 µM (human CA-II [1]; read-out: CA-II % at 100 nM): 96%

CCCCCN(CCO)C(=O)c1nc(Cc2ccccc2)n(-c2ccc(S(N)(=O)=O)cc2)n1 [Example R-16, 1-[4-(aminosulfonyl)phenyl]-5-benzyl-N-(2-hydroxyethyl)-N-pentyl-1H-124-triazole-3-carboxamide]
inhibition at 0.2 µM (human CA-IV): 61.3% | pIC50 (human CA-IV): 6.66 | inhibition at 0.1 µM (human CA-II [1]; [3]): 100% | inhibition at 0.1 µM (human CA-II [1]; read-out: CA-II % at 100 nM): 100%

CC(=O)N1CCCN(C(=O)c2nc(Cc3ccccc3)n(-c3ccc(S(N)(=O)=O)cc3)n2)CC1 [Example R-18, 4-(3-[(4-acetyl-14-diazepan-1-yl)carbonyl]-5-benzyl-1H-124-triazol-1-yl)benzenesulfonamide]
inhibition at 0.2 µM (human CA-IV): 56.9% | pIC50 (human CA-IV): 6.56 | inhibition at 0.1 µM (human CA-II [1]; [3]): 96% | inhibition at 0.1 µM (human CA-II [1]; read-out: CA-II % at 100 nM): 98%

CCN(CCCCO)C(=O)c1nc(Cc2ccccc2)n(-c2ccc(S(N)(=O)=O)cc2)n1 [Example R-19, 1-[4-(aminosulfonyl)phenyl)-5-benzyl-N-ethyl-N-(4-hydroxybutyl)-1H-124-triazole-3-carboxamide]
inhibition at 0.2 µM (human CA-IV): 50.2% | pIC50 (human CA-IV): 6.51 | inhibition at 0.1 µM (human CA-II [1]; [3]): 99% | pIC50 (human CA-II [1]): 8.45

NS(=O)(=O)c1ccc(-n2nc(C(=O)N3CCCCC3)nc2Cc2ccccc2)cc1 [Example R-24, 4-[5-benzyl-3-(piperidin-1-ylcarbonyl)-1H-124-triazol-1-yl]benzenesulfonamide]
inhibition at 0.2 µM (human CA-IV): 48.6% | pIC50 (human CA-IV): 6.44 | inhibition at 0.1 µM (human CA-II [1]; [3]): 99% | pIC50 (human CA-II [1]): 8.43

CN(C(=O)c1nc(Cc2ccccc2)n(-c2ccc(S(N)(=O)=O)cc2)n1)C1CCCCC1 [Example R-25, 1-[4-(aminosulfonyl)phenyl]-5-benzyl-N-cyclohexyl-N-methyl-1H-124-triazole-3-carboxamide]
inhibition at 0.2 µM (human CA-IV): 69.3% | pIC50 (human CA-IV): 6.41 | inhibition at 0.1 µM (human CA-II [1]; [3]): 101% | pIC50 (human CA-II [1]): 8.60

CN(CCn1cccn1)Cc1nc(Cc2ccccc2)n(-c2ccc(S(N)(=O)=O)cc2F)n1 [Example T-38, 4-[5-benzyl-3-({methyl[2-(1H-pyrazol-1-yl)ethyl]amino}methyl)-1H-124-triazol-1-yl]-3-fluorobenzenesulfonamide]
inhibition at 0.0025 µM (human CA-II [2]): 54%

NS(=O)(=O)c1ccc(-n2nc(CN3CCC[C@@H](O)C3)nc2Cc2ccccc2)c(F)c1 [Example T-39, 4-(5-benzyl-3-{[(3R)-3-hydroxypiperidin-1-yl]methyl}-1H-124-triazol-1-yl)-3-fluorobenzenesulfonamide]
inhibition at 0.0025 µM (human CA-II [2]): 65%

COC1COCCN(Cc2nc(Cc3ccccc3)n(-c3ccc(S(N)(=O)=O)cc3F)n2)C1 (stereo not drawn) [Example T-40, 4-{5-benzyl-3-[(6-methoxy-14-oxazepan-4-yl)methyl]-1H-124-triazol-1-yl}-3-fluorobenzenesulfonamide]
inhibition at 0.0025 µM (human CA-II [2]): 49%

C[C@@H]1COCCN1Cc1nc(Cc2ccccc2)n(-c2ccc(S(N)(=O)=O)cc2F)n1 [Example T-41, 4-(5-benzyl-3-{[(3R)-3-methylmorpholin-4-yl]methyl}-1H-124-triazol-1-yl)-3-fluorobenzenesulfonamide]
inhibition at 0.0025 µM (human CA-II [2]): 58%

CCCN(C)Cc1nc(Cc2ccccc2)n(-c2ccc(S(N)(=O)=O)cc2F)n1 [Example T-42, 4-(5-benzyl-3-{[methyl(propyl)amino]methyl}-1H-124-triazol-1-yl)-3-fluorobenzenesulfonamide]
inhibition at 0.0025 µM (human CA-II [2]): 42%

C[C@@H](NCc1nc(Cc2ccccc2)n(-c2ccc(S(N)(=O)=O)cc2F)n1)[C@@H](O)c1ccccc1 [Example T-43, 4-[5-benzyl-3-({[(1R2S)-2-hydroxy-1-methyl-2-phenylethyl]amino}methyl)-1H-124-triazol-1-yl]-3-fluorobenzenesulfonamide]
inhibition at 0.0025 µM (human CA-II [2]): 41%

NS(=O)(=O)c1ccc(-n2nc(CN[C@H](CO)Cc3ccccc3)nc2Cc2ccccc2)c(F)c1 [Example T-44, 4-[5-benzyl-3-({[(1S)-1-benzyl-2-hydroxyethyl]amino}methyl)-1H-124-triazol-1-yl]-3-fluorobenzenesulfonamide]
inhibition at 0.0025 µM (human CA-II [2]): 49%

NS(=O)(=O)c1ccc(-n2nc(CNCC3(c4ccccc4)CC3)nc2Cc2ccccc2)c(F)c1 [Example T-45, 4-[5-benzyl-3-({[(1-phenylcyclopropyl)methyl]amino}methyl)-1H-124-triazol-1-yl]-3-fluorobenzenesulfonamide]
inhibition at 0.0025 µM (human CA-II [2]): 53%

NS(=O)(=O)c1ccc(-n2nc(CNC[C@@H](O)c3ccccc3)nc2Cc2ccccc2)c(F)c1 [Example T-46, 4-[5-benzyl-3-({[(2S)-2-hydroxy-2-phenylethyl]amino}methyl)-1H-124-triazol-1-yl]-3-fluorobenzenesulfonamide]
inhibition at 0.0025 µM (human CA-II [2]): 57%

COC[C@@H](NCc1nc(Cc2ccccc2)n(-c2ccc(S(N)(=O)=O)cc2F)n1)c1ccccc1 [Example T-47, 4-[5-benzyl-3-({[(1S)-2-methoxy-1-phenylethyl]amino}methyl)-1H-124-triazol-1-yl]-3-fluorobenzenesulfonamide]
inhibition at 0.0025 µM (human CA-II [2]): 41%

NS(=O)(=O)c1ccc(-n2nc(CNCCc3cccc(F)c3)nc2Cc2ccccc2)c(F)c1 [Example T-48, 4-[5-benzyl-3-({[2-(3-fluorophenyl)ethyl]amino}methyl)-1H-124-triazol-1-yl]-3-fluorobenzenesulfonamide]
inhibition at 0.0025 µM (human CA-II [2]): 50%

Cc1cc(CNCc2nc(Cc3ccccc3)n(-c3ccc(S(N)(=O)=O)cc3F)n2)ccc1F [Example T-49, 4-(5-benzyl-3-{[(4-fluoro-3-methylbenzyl)amino]methyl}-1H-124-triazol-1-yl)-3-fluorobenzenesulfonamide]
inhibition at 0.0025 µM (human CA-II [2]): 49%

C[C@H](NCc1nc(Cc2ccccc2)n(-c2ccc(S(N)(=O)=O)cc2F)n1)[C@H](O)c1ccccc1 [Example T-50, 4-[5-benzyl-3-({[(1S2R)-2-hydroxy-1-methyl-2-phenylethyl]amino}methyl)-1H-124-triazol-1-yl]-3-fluorobenzenesulfonamide]
inhibition at 0.0025 µM (human CA-II [2]): 63%

C[C@H](CNCc1nc(Cc2ccccc2)n(-c2ccc(S(N)(=O)=O)cc2F)n1)c1ccccc1 [Example T-52, 4-[5-benzyl-3-({[(2S)-2-phenylpropyl]amino}methyl)-1H-124-triazol-1-yl]-3-fluorobenzenesulfonamide]
inhibition at 0.0025 µM (human CA-II [2]): 39%

NS(=O)(=O)c1ccc(-n2nc(CN[C@H]3CCCC[C@H]3O)nc2Cc2ccccc2)c(F)c1 [Example T-53, 4-[5-benzyl-3-({[(1S2R)-2-hydroxycyclohexyl]amino}methyl)-1H-124-triazol-1-yl]-3-fluorobenzenesulfonamide]
inhibition at 0.0025 µM (human CA-II [2]): 75%

NS(=O)(=O)c1ccc(-n2nc(CNCCOc3ccccc3F)nc2Cc2ccccc2)c(F)c1 [Example T-54]
inhibition at 0.0025 µM (human CA-II [2]): 38%

NS(=O)(=O)c1ccc(-n2nc(CNCc3ccc(F)cc3)nc2Cc2ccccc2)c(F)c1 [Example T-56, 4-(5-benzyl-3-{[(4-fluorobenzyl)amino]methyl}-1H-124-triazol-1-yl)-3-fluorobenzenesulfonamide]
inhibition at 0.0025 µM (human CA-II [2]): 50%

NS(=O)(=O)c1ccc(-n2nc(CNC3CCCCCC3)nc2Cc2ccccc2)c(F)c1 [Example T-57, 4-(5-benzyl-3-[(cycloheptylamino)methyl]-1H-124-triazol-1-yl}-3-fluorobenzenesulfonamide]
inhibition at 0.0025 µM (human CA-II [2]): 68%
